Data set [1] has as its system A. fumigatus A1163. The data set is described as follows: Persistently (PI) neutropenic murine survival model of disseminated aspergillosis. Type of data set: in vivo, CD-1 mouse. The following applies: severe PI model, oral, 20 mg/kg BD. Here is the method: (§1) Methods: Temporary (TI) or persistently (PI) neutropenic CD-1 mouse models of disseminated aspergillus were used. 3 days post immunosuppression with cyclophosphamide (200 mg/kg ip) mice were infected IV with an LD90 challenge of A. fumigatus A1163. Treatment commenced 5 h post infection and animals were treated for 9 days and observed for either 2 days or 7 days following cessation of treatment. […] 2-(1,5-Dimethyl-3-phenyl-1H-pyrrol-2-yl)-N-{4-[4-(4,6-dimethyl-pyridin-2-yl)-piperazin-1-yl]-phenyl}-2-oxo-acetamide was dosed orally as a suspension in HPMC/Tween 80 once or twice daily. Caspofungin dosed IP was used as a comparator.

Data set [2] in a line: Oral bio-availability and tissue distribution. The following applies: in vivo.
The next data set relates to Aspergillus terreus AT4. The data set is described as follows: MIC, RPMI medium. Type of data set: cell-based. The following applies: Aspergillus terreus, AT4, MIC banded into grades, read-out: MIC grade, A. terreus. Summed up:
(§2)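 OD485-based endpoint after 24-48 h/35° C; MIC = lowest concentration, >80% inhibition relative to drug-free. RPMI/2% glucose/0.135 M MOPS pH 7.0; 1−2×10^4 cfu/mL; range 50-0.05 mg/L.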

The subject of data set [3] is Aspergillus fumigatus AF210. Put plainly: MIC, RPMI medium. Type of data set: cell-based. The following applies: Aspergillus fumigatus, AF210, MIC banded into grades, read-out: MIC grade, A. fumigatus 210. Summed up:
as §2

The test system of another data set is Aspergillus flavus. Put plainly: MIC, RPMI medium. The class given is cell-based. The following applies: Aspergillus flavus, MIC banded into grades, read-out: MIC grade, A. flavus. The procedure, abridged:
as §2

The test system of a further data set is Aspergillus niger. Put plainly: MIC, RPMI medium. Type of data set: cell-based. The following applies: Aspergillus niger, MIC banded into grades, read-out: MIC grade, A. niger. Summed up: as §2
For data set [4], the system named is Aspergillus fumigatus AF293. Put plainly: MIC, RPMI medium. Type of data set: cell-based. The following applies: Aspergillus fumigatus, AF293, MIC banded into grades, read-out: MIC grade, A. fumigatus. Summed up: as §2
A further data set has as its system Aspergillus terreus AT49. Put plainly: MIC, RPMI medium. The class given is cell-based. The following applies: Aspergillus terreus, AT49, MIC banded into grades, read-out: MIC grade, A. terreus 49. The procedure, abridged:
as §2

In data set [5] the test system is A. fumigatus A1163. The data set is described as follows: Temporary (TI) neutropenic murine survival model of disseminated aspergillosis. The following applies: for survival at day 18: TI model with prolonged observation; for survival at day 18 / survival benefit / survival: oral; for survival benefit / survival: TI survival model. The class given is in vivo, CD-1 mouse. Here is the method: as §1

Data set [6] has as its system Aspergillus and other filamentous fungi. The data set is described as follows: Activity in vitro against Aspergillus and other filamentous fungi. Type of data set: cell-based.

The record followed here is patent US8993574B2, “Pyrrole antifungal agents” (F2G Ltd, priority 2008, dated 2015).

Structures are written as SMILES.

For orientation: MIC means the lowest concentration found to suppress growth. As for `Cc1cc(C)nc(N2CCN(c3ccc(NC(=O)C(=O)c4c(-c5ccccc5)cc(C)n4C)cc3)CC2)c1` [Example 1, 2-(1,5-Dimethyl-3-phenyl-1H-pyrrol-2-yl)-N-{4-[4-(4,6-dimethyl-pyridin-2-yl)-piperazin-1-yl]-phenyl}-2-oxo-acetamide], in the data set with A. fumigatus A1163 [1], the “survival at day 12” value is 70%. Moreover, the tissue distribution result in data set [2] is “good”. Also, the oral bio-availability result in data set [2] (po) is listed as “good”. Moreover, the MIC (with Aspergillus terreus AT4; in data set [3]; in the data set with Aspergillus flavus; in the data set with Aspergillus niger; in [4]; in the data set on Aspergillus terreus AT49) was less than 1 µg/mL each time. The figures for the “survival at day 18” value in the data set with A. fumigatus A1163 [5] (10 mg/kg BD) and in the data set with A. fumigatus A1163 [5] (20 mg/kg OD) were 80% and 70%, respectively. The survival benefit entry in the data set with A. fumigatus A1163 [5] (1.25 mg/kg per day) and with A. fumigatus A1163 [5] (2.5 mg/kg per day) was “little benefit” in each case. Moreover, the survival in the data set with A. fumigatus A1163 [5] (5 mg/kg per day) was 80%; with A. fumigatus A1163 [5] (10 mg/kg/day) it was 90%; with A. fumigatus A1163 [5] (20 mg/kg/day), 100%; with A. fumigatus A1163 [5] (30 mg/kg/day), 100%; in the data set on A. fumigatus A1163 [5] (40 mg/kg/day) it was 100%. The “efficacy compared with caspofungin (CAS) dosed IP” value with A. fumigatus A1163 [5] (in these models (TI and PI)) is “at least as effective as CAS”. Also, the “activity in vitro against Aspergillus and other filamentous fungi” value in [6] was “excellent activity”.
